These results are taken from PubChem BioAssay AID652164 (Sanford-Burnham Center for Chemical Genomics, 2013).

The source made the active and inactive calls.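 Rule for the calls: active = IC50 at or below 20 µM; inactive = the rest.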

For this experiment, the target named is Fatty acid synthase (Homo sapiens) (UniProt P49327). The experiment can be described thus: FAS thioesterase domain inhibitors, SAR follow-up, biochemical, endpoint fluorescence intensity, powder samples (AID 652164). As to conditions: recombinant FAS-TE, OMFH substrate fluorescence.
Sequence of Fatty acid synthase (Homo sapiens) (P49327 whole entry, looked up, the tested form may be a part): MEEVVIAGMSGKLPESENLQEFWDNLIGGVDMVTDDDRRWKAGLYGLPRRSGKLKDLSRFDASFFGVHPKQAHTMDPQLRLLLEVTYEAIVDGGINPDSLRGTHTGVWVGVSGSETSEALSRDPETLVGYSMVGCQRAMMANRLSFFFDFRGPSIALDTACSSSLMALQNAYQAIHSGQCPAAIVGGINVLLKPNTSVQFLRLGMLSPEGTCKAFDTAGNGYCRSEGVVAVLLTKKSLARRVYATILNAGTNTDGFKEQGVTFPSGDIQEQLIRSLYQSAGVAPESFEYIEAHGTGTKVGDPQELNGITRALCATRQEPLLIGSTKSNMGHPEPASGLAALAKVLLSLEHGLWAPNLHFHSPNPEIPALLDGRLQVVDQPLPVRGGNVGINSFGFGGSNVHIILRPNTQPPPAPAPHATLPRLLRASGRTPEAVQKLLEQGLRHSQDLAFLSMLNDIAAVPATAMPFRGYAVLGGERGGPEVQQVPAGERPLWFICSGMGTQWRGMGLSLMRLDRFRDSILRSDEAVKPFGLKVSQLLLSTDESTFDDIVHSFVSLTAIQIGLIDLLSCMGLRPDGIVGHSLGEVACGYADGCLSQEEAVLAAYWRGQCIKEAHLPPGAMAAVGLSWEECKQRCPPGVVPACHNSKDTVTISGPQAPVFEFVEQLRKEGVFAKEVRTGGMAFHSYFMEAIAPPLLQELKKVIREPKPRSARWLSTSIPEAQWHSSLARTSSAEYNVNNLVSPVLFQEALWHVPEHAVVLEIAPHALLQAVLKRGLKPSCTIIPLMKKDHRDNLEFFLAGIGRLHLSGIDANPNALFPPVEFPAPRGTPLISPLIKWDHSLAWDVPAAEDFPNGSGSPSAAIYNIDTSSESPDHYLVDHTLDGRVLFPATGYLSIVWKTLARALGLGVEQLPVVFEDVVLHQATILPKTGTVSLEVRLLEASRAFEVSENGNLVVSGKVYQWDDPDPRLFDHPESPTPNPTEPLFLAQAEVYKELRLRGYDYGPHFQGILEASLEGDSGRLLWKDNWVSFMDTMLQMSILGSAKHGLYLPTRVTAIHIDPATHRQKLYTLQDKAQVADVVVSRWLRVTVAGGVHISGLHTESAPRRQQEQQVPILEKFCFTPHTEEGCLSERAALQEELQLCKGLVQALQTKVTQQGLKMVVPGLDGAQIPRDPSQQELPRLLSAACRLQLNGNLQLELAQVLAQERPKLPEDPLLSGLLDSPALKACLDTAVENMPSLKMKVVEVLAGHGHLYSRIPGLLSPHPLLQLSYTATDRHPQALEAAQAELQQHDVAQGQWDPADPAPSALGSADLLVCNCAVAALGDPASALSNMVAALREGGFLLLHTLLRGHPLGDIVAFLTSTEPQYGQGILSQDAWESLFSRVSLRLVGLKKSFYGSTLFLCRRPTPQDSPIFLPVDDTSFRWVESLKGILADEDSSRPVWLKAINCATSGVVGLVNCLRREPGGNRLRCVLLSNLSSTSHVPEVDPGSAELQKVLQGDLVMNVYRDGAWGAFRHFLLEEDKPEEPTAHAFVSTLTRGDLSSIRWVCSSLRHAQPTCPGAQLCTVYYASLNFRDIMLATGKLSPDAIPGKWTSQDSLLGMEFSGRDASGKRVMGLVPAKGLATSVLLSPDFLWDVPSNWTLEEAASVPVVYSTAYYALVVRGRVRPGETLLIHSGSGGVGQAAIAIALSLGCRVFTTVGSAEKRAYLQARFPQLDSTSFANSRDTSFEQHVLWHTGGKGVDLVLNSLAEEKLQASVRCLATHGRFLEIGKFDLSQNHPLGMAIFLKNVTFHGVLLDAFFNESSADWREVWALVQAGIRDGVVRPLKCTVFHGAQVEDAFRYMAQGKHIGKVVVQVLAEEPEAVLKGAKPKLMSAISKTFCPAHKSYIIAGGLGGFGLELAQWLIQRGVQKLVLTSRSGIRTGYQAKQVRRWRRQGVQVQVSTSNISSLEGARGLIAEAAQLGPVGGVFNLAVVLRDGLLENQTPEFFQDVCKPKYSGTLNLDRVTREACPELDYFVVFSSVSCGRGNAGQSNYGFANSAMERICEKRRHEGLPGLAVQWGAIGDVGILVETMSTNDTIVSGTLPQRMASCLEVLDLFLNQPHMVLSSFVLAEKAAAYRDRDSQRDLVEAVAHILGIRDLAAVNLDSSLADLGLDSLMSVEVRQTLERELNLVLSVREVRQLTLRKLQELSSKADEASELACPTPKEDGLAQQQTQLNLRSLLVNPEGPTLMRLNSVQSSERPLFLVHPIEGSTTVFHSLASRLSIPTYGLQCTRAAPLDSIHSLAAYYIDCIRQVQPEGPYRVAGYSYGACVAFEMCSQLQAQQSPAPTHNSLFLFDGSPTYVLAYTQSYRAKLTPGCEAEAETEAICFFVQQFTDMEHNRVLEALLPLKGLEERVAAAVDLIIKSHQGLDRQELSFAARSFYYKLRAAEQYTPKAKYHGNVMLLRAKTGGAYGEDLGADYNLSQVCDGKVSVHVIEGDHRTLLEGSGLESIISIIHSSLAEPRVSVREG
Regarding `CC1CCN(S(=O)(=O)c2ccc(-c3csc(NC(=O)C(C)C)n3)cc2)CC1`, the IC50 is 658 nM. As to `CC(C)CC(=O)Nc1nc(-c2ccc(S(=O)(=O)N3CCOCC3)cc2)cs1`, the 50% inhibitory concentration (IC50) is 11600 nM.

For the compound `CCC(=O)Nc1nc(-c2ccc(S(=O)(=O)N3CCCC3)cc2)cs1`, the IC50 was 648 nM.

As to `CCCCC(=O)Nc1nc(-c2ccc(S(=O)(=O)N3CCCC3)cc2)cs1`, the IC50 is 201 nM. The value for `CCCCC(=O)Nc1nc(-c2ccc(S(=O)(=O)N3CCSCC3)cc2)cs1` was 713 nM; that for `CC(C)(C)OC(=O)Nc1nc(-c2ccc(S(=O)(=O)N3CCOCC3)cc2)cs1` was “inactive”. The value for `CCC(CC)C(=O)Nc1nc(-c2ccc(S(=O)(=O)N3CCOCC3)cc2)cs1` was 334 nM. For `CCC(=O)Nc1nc(-c2ccc(S(=O)(=O)N3CCOCC3)cc2)cs1` the value was 4520 nM; for `CCC(C)C(=O)Nc1nc(-c2ccc(S(=O)(=O)N(CC)CC)cc2)cs1` (centres undefined), 300 nM. On to `CCN(CC)S(=O)(=O)c1ccc(-c2csc(NC(=O)C3CCCCC3)n2)cc1`, for which the IC50 is 2930 nM. For `CCCCC(=O)Nc1nc(-c2ccc(S(=O)(=O)N3CCOCC3)cc2)cs1` the value was 552 nM; for `O=C(Nc1nc(-c2ccc(S(=O)(=O)N3CCCC3)cc2)cs1)C1CCC1`, 398 nM. As to `CC(C)C(=O)Nc1nc(-c2ccc(S(=O)(=O)N(C)C)cc2)cs1`, the IC50 is 575 nM. The value for `O=C(Nc1nc(-c2ccc(S(=O)(=O)N3CCCC3)cc2)cs1)C1CC1` was 558 nM; that for `O=C(Nc1nc(-c2ccc(S(=O)(=O)N3CCOCC3)cc2)cs1)C1CC1` was 5210 nM. For `CC(C)C(=O)Nc1nc(-c2ccc(S(=O)(=O)N3CCCC3)cc2)cs1`, the IC50 was 277 nM. For `CCN(CC)S(=O)(=O)c1ccc(-c2csc(NC(=O)C(C)C)n2)cc1`, the IC50 is 281 nM. In the case of `O=C(Nc1nc(-c2ccc(S(=O)(=O)N3CCCC3)cc2)cs1)C1CCCC1`, the IC50 is 729 nM.

Regarding `CCN(CC)S(=O)(=O)c1ccc(-c2csc(NC(=O)C3CC3)n2)cc1`, the IC50 is 2320 nM.

`O=C(Nc1nc(-c2ccc(S(=O)(=O)N3CCOCC3)cc2)cs1)C1CCC1`: the IC50 is 3590 nM. Regarding `CCC(=O)Nc1nc(-c2ccc(S(=O)(=O)N(CC)CC)cc2)cs1`, the IC50 is 4250 nM.

Consider `CCC(C)C(=O)Nc1nc(-c2ccc(S(=O)(=O)N3CCOCC3)cc2)cs1` (centres undefined), for which the IC50 was 311 nM. For `CCCCC(=O)Nc1nc(-c2ccc(S(=O)(=O)N3CCC(C)CC3)cc2)cs1` the value was 501 nM. For `CCCCC(=O)Nc1nc(-c2ccc(S(=O)(=O)N(CC)CC)cc2)cs1` the value was 172 nM.
